Measured values: publication PMC4298654, “In vivo formation of N-acyl-fumonisin B1” (Mycotoxin Research, 2014)

Assay: In vivo formation of NAFB1 and NAHFB1 in rat kidney and liver (HPLC-ESI-MS/MS)
Parameters: N-acyl-derivative in tissue sample, analysis a / N-acyl-derivative in tissue sample, analysis b / N-acyl-derivative in tissue sample, mean: unit not given here
Conditions: 5 days
Excerpt: The study protocol was approved by the Institutional Animal Care and Use Committee, Richard B. Russell Agricultural Research Center, Athens, GA. Male Sprague–Dawley rats (Harlan Industries, Indianapolis, IN, USA), 7 weeks of age at receipt, were individually housed in stainless steel, wire mesh cages in an environmentally controlled room having a 12-h light/dark cycle. Food (2019 Global Rodent Diet, Teklad, Madison, WI, USA) and fresh tap water were provided ad libitum. After a 1 week acclimation period, the animals were randomly assigned to five groups (n = 2/group) having mean weights of 215 to 216 g (weight range of all animals, 211 to 220 g). For five consecutive days, they were observed, weighed, and given an intraperitoneal injection (ip) of 0 (vehicle), 0.5, 1.0, or 2.0 mg/kg body weight FB1 (provided by R. Eppley, US FDA), 1.0 mg/kg body weight HFB1 (positive control) (Voss et al. [2009]), or vehicle (0.9 % physiological saline). These doses corresponded to 0.69, 1.38, and 2.77 μmol FB1/kg body weight and 2.47 μmol/kg body weight HFB1 per day. In order to compare the effects of FB1 and HFB1, dosages will be expressed as molar concentrations and, on this basis, the high dose of FB1 is roughly equivalent to that of the positive control dose of HFB1. Dosing solutions were sterile filtered and administered at a volume rate of 10 ml/kg body weight. The animals were fasted overnight prior to administration of the final dose. The rats were euthanized (CO2 inhalation and exsanguination) 60 to 90 min following the final dose administration and examined by necropsy. The kidney and liver specimens were fixed in 10 % neutral buffered formalin, processed, and microscopically evaluated without knowledge of the animal’s identity or treatment group. Three representative liver and kidney specimens (100 mg each) were also collected, immediately frozen, and stored (−80 °C) until processed, at which time the tissues were thawed and homogenized in distilled/deionized water (1 ml water/100 mg tissue). The homogenates were lyophilized before they were shipped by overnight courier for the analysis of fumonisin metabolites and sphingolipids.
Lyophilized liver and kidney tissues (100 mg wet weight equivalents) were processed for the quantification of FB1, HFB1, NAFB1, NAHFB1, and sphingolipids. Preparation of the tissue samples was performed according to a previously published method (Harrer et al. [2013]). For the quantification of FB1 and HFB1, a d6-labeled derivative of FB1 (FB1-d6) was used as the internal standard. Synthetic derivatives with a heptadecanoic fatty acid (C17:0) residue were used as internal standards for the quantification of N-acyl-fumonisins and ceramides (N-C17:0-FB1, N-C17:0-HFB1, and N-C17:0-ceramide). The sphingoid bases and their phosphate derivatives were quantified using synthetic derivatives with a C17-acyl-backbone: sphingosine (C17:1), sphingosine-1-phosphate (C17:1), sphinganine (C17:0), sphinganine-1-phosphate (C17:0) as internal standards. The standards were dissolved in methanol:chloroform (2:1, v/v) and then mixed with the tissue samples. The samples spiked with internal standard were kept at room temperature for 30 min before being processed further. The internal standard-spiked samples were first extracted with ethyl acetate, isopropanol, and water (60:30:10, v/v/v) and a second time using methanol, chloroform, and water (60:30:10, v/v/v). The extracts were combined, the solvents removed by evaporation, and the dried samples stored at−80 °C till analyzed.
For the analysis, the samples were reconstituted in a mixture of water, methanol, and tetrahydrofurane (60:24:16, v/v/v). The NAFB1 and NAHFB1 derivatives having the following fatty acyl chain lengths were quantified by HPLC-MS/MS: C16:0, C18:0, C20:0, C22:0, C24:0, C26:0. Furthermore, we also quantified the unsaturated derivatives C24:1 and C26:1. The results are given as the sum of all N-acyl derivatives of FB1 or HFB1. […]

[1] = Kidney, treatment FB1 0,5 mg/kg BW ip
[2] = Kidney, treatment FB1 1 mg/kg BW ip
[3] = Kidney, treatment FB1 2 mg/kg BW ip
[4] = Kidney, treatment HFB1 1 mg/kg BW ip
[5] = Liver, treatment FB1 0,5 mg/kg BW ip
[6] = Liver, treatment FB1 1 mg/kg BW ip
[7] = Liver, treatment FB1 2 mg/kg BW ip
[8] = Liver, treatment HFB1 1 mg/kg BW ip

Compound | N-acyl-derivative in tissue sample, analysis a [2] | N-acyl-derivative in tissue sample, analysis b [2] | N-acyl-derivative in tissue sample, mean [2] | N-acyl-derivative in tissue sample, analysis a [3] | N-acyl-derivative in tissue sample, analysis b [3] | N-acyl-derivative in tissue sample, mean [3] | N-acyl-derivative in tissue sample, analysis a [4] | N-acyl-derivative in tissue sample, analysis b [4] | N-acyl-derivative in tissue sample, mean [4] | N-acyl-derivative in tissue sample, analysis a [5] | N-acyl-derivative in tissue sample, analysis b [5] | N-acyl-derivative in tissue sample, mean [5] | N-acyl-derivative in tissue sample, analysis a [6] | N-acyl-derivative in tissue sample, analysis b [6] | N-acyl-derivative in tissue sample, mean [6] | N-acyl-derivative in tissue sample, analysis a [7] | N-acyl-derivative in tissue sample, analysis b [7] | N-acyl-derivative in tissue sample, mean [7] | N-acyl-derivative in tissue sample, analysis a [8] | N-acyl-derivative in tissue sample, analysis b [8] | further results
CCCCCCCCCCCCCCCC(=O)N[C@@H](C)[C@@H](O)C[C@H](O)CCCC[C@@H](O)C[C@H](C)C[C@H](O)[C@H](O)[C@H](C)CCCC [HFB1C16:0] | 0,2 | 0,1 | 0,2 | 0,3 | 0,5 | 0,4 | 22,7 | 37,3 | 30,0 | 0,3 | 0,4 | 0,3 | 0,0 | 0,4 | 0,2 | 0,0 | 0,3 | 0,1 | 34,9 | 44,3 | N-acyl-derivative in tissue sample, analysis a [1]: 0,0; N-acyl-derivative in tissue sample, analysis b [1]: 0,2; N-acyl-derivative in tissue sample, mean [1]: 0,1; N-acyl-derivative in tissue sample, mean [8]: 39,6
CCCCCCCCCCCCCCCCCC(=O)N[C@@H](C)[C@@H](O)C[C@H](O)CCCC[C@@H](O)C[C@H](C)C[C@H](O)[C@H](O)[C@H](C)CCCC [HFB1C18:0] | 0,1 | 0,0 | 0,1 | 0,0 | 0,1 | 0,1 | 2,6 | 1,8 | 2,2 | 0,3 | 0,1 | 0,2 | 0,0 | 0,0 | 0,0 | 0,0 | 0,0 | 0,0 | 1,5 | 2,0 | N-acyl-derivative in tissue sample, analysis a [1]: 0,1; N-acyl-derivative in tissue sample, analysis b [1]: 0,2; N-acyl-derivative in tissue sample, mean [1]: 0,2; N-acyl-derivative in tissue sample, mean [8]: 1,8
CCCCCCCCCCCCCCCCCCCC(=O)N[C@@H](C)[C@@H](O)C[C@H](O)CCCC[C@@H](O)C[C@H](C)C[C@H](O)[C@H](O)[C@H](C)CCCC [HFB1C20:0] | 0,0 | 0,1 | 0,1 | 0,0 | 0,0 | 0,0 | 3,1 | 0,6 | 1,8 | 0,0 | 0,2 | 0,1 | 0,2 | 0,1 | 0,2 | 0,0 | 0,0 | 0,0 | 8,9 | 13,1 | N-acyl-derivative in tissue sample, analysis a [1]: 0,0; N-acyl-derivative in tissue sample, analysis b [1]: 0,0; N-acyl-derivative in tissue sample, mean [1]: 0,0; N-acyl-derivative in tissue sample, mean [8]: 11,0
CCCCCCCCCCCCCCCCCCCCCC(=O)N[C@@H](C)[C@@H](O)C[C@H](O)CCCC[C@@H](O)C[C@H](C)C[C@H](O)[C@H](O)[C@H](C)CCCC [HFB1C22:0] | 0,0 | 0,0 | 0,0 | 0,0 | 0,0 | 0,0 | 1,5 | 4,3 | 2,9 | 0,0 | 0,0 | 0,0 | 0,0 | 0,0 | 0,0 | 0,0 | 0,0 | 0,0 | 61,0 | 45,8 | N-acyl-derivative in tissue sample, analysis a [1]: 0,0; N-acyl-derivative in tissue sample, analysis b [1]: 0,0; N-acyl-derivative in tissue sample, mean [1]: 0,0; N-acyl-derivative in tissue sample, mean [8]: 53,4
CCCCCCCCCCCCCCCCCCCCCCCC(=O)N[C@@H](C)[C@@H](O)C[C@H](O)CCCC[C@@H](O)C[C@H](C)C[C@H](O)[C@H](O)[C@H](C)CCCC [HFB1C24:0] | 0,0 | 0,0 | 0,0 | 0,0 | 0,0 | 0,0 | 3,0 | 2,7 | 2,9 | 0,0 | 0,0 | 0,0 | 0,0 | 0,0 | 0,0 | 0,0 | 0,0 | 0,0 | 25,0 | 23,5 | N-acyl-derivative in tissue sample, mean [8]: 24,2
CCCCCCCC/C=C\CCCCCCCCCCCCCC(=O)N[C@@H](C)[C@@H](O)C[C@H](O)CCCC[C@@H](O)C[C@H](C)C[C@H](O)[C@H](O)[C@H](C)CCCC [HFB1C24:1] | 0,4 | 0,0 | 0,2 | 0,1 | 0,0 | 0,0 | 7,9 | 10,8 | 9,3 | 0,0 | 0,0 | 0,0 | 0,0 | 0,1 | 0,1 | 0,4 | 0,0 | 0,2 | 156,0 | 140,5 | N-acyl-derivative in tissue sample, analysis a [1]: 0,0; N-acyl-derivative in tissue sample, analysis b [1]: 0,0; N-acyl-derivative in tissue sample, mean [1]: 0,0; N-acyl-derivative in tissue sample, mean [8]: 148,3
